From patent publication US8871753B2, “Macrocyclic compounds and their use as kinase inhibitors” (Incyte Corporation, priority 2008, dated 2014)
Counter-ions that a name gives are not always drawn. Like-named read-outs stand apart in the source and are kept apart here.

Experiments:
Format in all cases: biochemical
TYK2 = TYK2 (Homo sapiens, UniProt P29597); test: TYK2 kinase inhibition (Table A1)
[1] = target: T1, Recombinant Human Anaplastic Lymphoma Kinase (Homo sapiens, UniProt Q9UM73); test: ALK HTRF kinase assay
T1 construct: purchased Invitrogen, Carlsbad, Calif
T1 sequence (Q9UM73 19-1620): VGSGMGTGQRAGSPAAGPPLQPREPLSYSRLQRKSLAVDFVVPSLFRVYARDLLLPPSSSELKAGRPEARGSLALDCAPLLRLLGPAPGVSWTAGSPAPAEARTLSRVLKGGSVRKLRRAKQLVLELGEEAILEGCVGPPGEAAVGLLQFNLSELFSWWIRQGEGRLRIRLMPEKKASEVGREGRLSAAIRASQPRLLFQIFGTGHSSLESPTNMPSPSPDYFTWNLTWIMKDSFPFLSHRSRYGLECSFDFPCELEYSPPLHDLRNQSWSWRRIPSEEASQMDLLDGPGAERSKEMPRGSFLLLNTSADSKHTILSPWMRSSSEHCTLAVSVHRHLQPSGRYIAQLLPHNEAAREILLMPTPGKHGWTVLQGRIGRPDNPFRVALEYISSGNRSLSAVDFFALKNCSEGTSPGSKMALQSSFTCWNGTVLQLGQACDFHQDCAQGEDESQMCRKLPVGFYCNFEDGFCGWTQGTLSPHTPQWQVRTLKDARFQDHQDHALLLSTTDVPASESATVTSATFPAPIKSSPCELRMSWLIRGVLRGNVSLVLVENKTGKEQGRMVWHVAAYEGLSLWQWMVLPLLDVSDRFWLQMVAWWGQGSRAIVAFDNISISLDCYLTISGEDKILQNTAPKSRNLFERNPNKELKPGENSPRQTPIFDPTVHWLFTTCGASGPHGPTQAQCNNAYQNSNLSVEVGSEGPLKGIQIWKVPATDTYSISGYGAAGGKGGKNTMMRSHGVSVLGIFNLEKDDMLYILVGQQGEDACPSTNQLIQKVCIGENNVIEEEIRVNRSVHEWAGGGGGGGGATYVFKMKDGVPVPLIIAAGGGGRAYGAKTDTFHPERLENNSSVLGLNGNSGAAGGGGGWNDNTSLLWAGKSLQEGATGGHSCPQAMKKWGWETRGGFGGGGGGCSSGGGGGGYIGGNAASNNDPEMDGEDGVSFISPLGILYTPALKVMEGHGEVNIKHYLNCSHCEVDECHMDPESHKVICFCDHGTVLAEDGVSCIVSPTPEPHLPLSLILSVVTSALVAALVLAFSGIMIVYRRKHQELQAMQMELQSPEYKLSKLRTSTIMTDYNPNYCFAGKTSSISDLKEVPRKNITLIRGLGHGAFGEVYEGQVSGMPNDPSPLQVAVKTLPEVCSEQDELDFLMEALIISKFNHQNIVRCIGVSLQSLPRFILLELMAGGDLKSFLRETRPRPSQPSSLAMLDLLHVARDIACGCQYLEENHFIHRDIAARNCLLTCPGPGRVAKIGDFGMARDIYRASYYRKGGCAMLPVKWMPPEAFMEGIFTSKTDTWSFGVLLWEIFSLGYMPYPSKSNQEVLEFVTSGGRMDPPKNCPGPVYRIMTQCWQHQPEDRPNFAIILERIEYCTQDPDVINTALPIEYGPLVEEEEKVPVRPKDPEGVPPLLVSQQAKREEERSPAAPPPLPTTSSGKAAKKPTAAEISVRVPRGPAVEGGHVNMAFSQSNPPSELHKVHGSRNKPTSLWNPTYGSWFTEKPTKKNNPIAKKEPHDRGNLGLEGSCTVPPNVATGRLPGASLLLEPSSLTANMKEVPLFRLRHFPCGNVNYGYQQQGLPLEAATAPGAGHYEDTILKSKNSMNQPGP
In short: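 Recombinant human ALK phosphorylated a biotinylated synthetic peptide. Phosphotyrosine was detected by TR-FRET between a Eu-labelled anti-phosphotyrosine antibody and streptavidin-allophycocyanin. IC50 values came from fitting signal against inhibitor concentration to a four-parameter logistic equation with variable Hill slope.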

[2] = target: T2, human JAK3 (a.a. 781-1124) (Homo sapiens, UniProt P52333); test: In vitro JAK kinase assay (HTRF, phosphorylation of a biotinylated peptide), JAK3
T2 construct: JAK3 (a.a. 781-1124); His tag (N); made in house; host or cells: insect cells (baculovirus)
T2 sequence (P52333 781-1124): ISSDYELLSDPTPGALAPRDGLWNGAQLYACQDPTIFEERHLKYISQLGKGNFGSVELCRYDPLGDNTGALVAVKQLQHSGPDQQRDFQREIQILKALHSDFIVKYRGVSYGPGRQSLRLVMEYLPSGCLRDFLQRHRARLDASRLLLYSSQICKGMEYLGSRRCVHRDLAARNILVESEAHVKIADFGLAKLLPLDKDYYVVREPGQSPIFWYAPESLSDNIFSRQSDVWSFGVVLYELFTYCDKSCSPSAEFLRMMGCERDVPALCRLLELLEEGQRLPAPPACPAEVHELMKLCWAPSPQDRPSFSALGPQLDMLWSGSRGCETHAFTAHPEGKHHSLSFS
In short: (§1)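 Kinase activity was measured as phosphorylation of a biotinylated peptide, with ATP at 90 μM for JAK1, 30 μM for JAK2 and 3 μM for JAK3. Reactions ran 1 hr at room temperature, were stopped with EDTA plus SA-APC and Eu-Py20, and were read by HTRF after 40 minutes of antibody binding.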

[3] = target: T3, human JAK1 (a.a. 837-1142) (Homo sapiens, UniProt P23458); test: In vitro JAK kinase assay (HTRF, phosphorylation of a biotinylated peptide), JAK1; settings: read-out: JAK1 IC50
T3 construct: human JAK1 (a.a. 837-1142); His tag (N); made in house; host or cells: insect cells (baculovirus)
T3 sequence (P23458 849-1154): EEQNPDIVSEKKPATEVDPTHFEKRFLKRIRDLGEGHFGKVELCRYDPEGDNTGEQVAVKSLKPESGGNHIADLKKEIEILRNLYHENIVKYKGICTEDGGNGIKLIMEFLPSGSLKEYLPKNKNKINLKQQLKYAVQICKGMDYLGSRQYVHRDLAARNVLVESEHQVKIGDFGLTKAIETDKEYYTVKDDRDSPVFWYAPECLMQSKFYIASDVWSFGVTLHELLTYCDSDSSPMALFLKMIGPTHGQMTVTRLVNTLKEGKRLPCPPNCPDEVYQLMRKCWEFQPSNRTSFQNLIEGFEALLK
In short: as §1

[4] = target: T4, human JAK2 (a.a. 828-1132) (Homo sapiens, UniProt O60674); test: In vitro JAK kinase assay (HTRF, phosphorylation of a biotinylated peptide), JAK2
T4 construct: JAK2 (a.a. 828-1132); His tag (N); made in house; host or cells: insect cells (baculovirus)
T4 sequence (O60674 828-1132): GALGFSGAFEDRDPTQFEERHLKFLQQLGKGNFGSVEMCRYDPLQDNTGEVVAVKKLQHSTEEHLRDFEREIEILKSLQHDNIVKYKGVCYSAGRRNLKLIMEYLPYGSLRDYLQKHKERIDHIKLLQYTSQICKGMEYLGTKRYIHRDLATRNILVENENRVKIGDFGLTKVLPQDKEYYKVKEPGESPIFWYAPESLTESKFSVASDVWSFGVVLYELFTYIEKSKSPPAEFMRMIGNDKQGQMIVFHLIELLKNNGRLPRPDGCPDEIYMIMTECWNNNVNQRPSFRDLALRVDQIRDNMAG
In short: as §1

[5] = compound at a concentration of 500 nM or 1 mM (not specified), cells shown as percentage
[6] = Table B1, cells without percent sign
[7] = compound at 500 nM or 1 mM, 90 μM ATP
[8] = method AA1 (3 μM ATP) or AA2 (1000 μM ATP), not stated per value
[9] = method AA1 (90 μM ATP) or AA2 (1000 μM ATP), not stated per value
[10] = method AA1 (30 μM ATP) or AA2 (1000 μM ATP), not stated per value

Chain of TYK2 (P29597 whole entry): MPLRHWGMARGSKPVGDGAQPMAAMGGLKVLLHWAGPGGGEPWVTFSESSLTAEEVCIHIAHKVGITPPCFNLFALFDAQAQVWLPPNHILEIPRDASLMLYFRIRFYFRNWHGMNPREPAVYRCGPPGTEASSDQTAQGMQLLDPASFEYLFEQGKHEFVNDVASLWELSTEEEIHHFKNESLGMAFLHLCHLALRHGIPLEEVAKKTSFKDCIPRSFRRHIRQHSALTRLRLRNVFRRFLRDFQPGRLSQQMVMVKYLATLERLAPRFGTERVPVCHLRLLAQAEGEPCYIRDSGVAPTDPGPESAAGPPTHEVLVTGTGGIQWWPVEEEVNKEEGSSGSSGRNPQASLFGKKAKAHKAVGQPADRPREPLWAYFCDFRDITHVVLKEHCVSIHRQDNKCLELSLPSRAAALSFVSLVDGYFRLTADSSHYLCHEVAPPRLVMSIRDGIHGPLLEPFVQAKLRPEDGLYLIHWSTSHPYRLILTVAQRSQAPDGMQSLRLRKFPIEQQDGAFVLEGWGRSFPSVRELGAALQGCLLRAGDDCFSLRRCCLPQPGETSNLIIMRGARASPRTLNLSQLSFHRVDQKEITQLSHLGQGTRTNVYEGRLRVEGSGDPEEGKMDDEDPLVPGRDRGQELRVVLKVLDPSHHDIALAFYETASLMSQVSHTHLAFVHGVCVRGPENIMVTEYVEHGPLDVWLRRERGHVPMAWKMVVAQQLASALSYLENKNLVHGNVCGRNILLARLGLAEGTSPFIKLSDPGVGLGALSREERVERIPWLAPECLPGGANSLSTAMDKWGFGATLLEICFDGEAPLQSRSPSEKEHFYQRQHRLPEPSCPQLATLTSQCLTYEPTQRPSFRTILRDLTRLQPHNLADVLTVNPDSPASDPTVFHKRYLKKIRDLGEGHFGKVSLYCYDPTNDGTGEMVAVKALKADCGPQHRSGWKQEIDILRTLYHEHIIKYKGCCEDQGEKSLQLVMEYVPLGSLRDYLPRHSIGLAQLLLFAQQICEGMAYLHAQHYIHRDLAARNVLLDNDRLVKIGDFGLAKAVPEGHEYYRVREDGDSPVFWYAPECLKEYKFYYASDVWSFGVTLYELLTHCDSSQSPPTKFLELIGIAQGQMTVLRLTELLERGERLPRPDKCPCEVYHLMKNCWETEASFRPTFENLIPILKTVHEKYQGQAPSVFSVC

IC50 (TYK2; Table B1) [nM] | IC50 ([2]; Table B1) [nM] | IC50 ([3]; Table B1) [nM] | IC50 ([4]; Table B1) [nM] | IC50 (TYK2) [nM] | IC50 [2, 8] [nM] | IC50 [3, 9] [nM] | IC50 [4, 10] [nM] | SMILES | also measured
300 | 371 | 11 | 150 | – | – | – | – | Cc1occc1NC(=O)N1CCC(CN(C)Cc2ccc3cc2CCc2cncc(c2)Nc2ncc(Cl)c(n2)N3)CC1 [Example B349, 4-{[{[6-Chloro-2,4,8,18,22-pentaazatetracyclo[14.3.1.1(3,7).1(9,13)]docosa-1(20),3(22),4,6,9(21),10,12,16,18-nonaen-12-yl]methyl}(methyl)amino]methyl}-N-(2-methyl-3-furyl)piperidine-1-carboxamide tris(trifluoroacetate)] | ALK % of inhibition at a concentration of 500 nM or 1 mM ([1]; percentage inhibition of the example compound at a concentration of 500 nM or 1 mM (not specified which)): 61%
85 | > 200 | 19 | 150 | – | – | – | – | O=C(Nc1ccc2cc1CCc1cncc(c1)Nc1ncc(Cl)c(n1)N2)N1CCN(c2cnccn2)CC1 [Example B294, N-[6-Chloro-2,4,8,18,22-pentaazatetracyclo[14.3.1.1(3,7).1(9,13)]docosa-1(20),3(22),4,6,9(21),10,12,16,18-nonaen-12-yl]-4-pyrazin-2-ylpiperazine-1-carboxamide tetrakis(trifluoroacetate)] | ALK % of inhibition at a concentration of 500 nM or 1 mM [1, 5]: 54%
20 | 10 | 8.2 | 4.1 | – | – | – | – | COCC(=O)Nc1ccc2cc1CCc1cccc(c1)Nc1ncc(Cl)c(n1)N2 [Example B28, N-[6-Chloro-2,4,8,22-tetraazatetracyclo[14.3.1.1(3,7).1(9,13)]docosa-1(20), 3(22),4,6,9(21),10,12,16,18-nonaen-12-yl]-2-methoxyacetamide trifluoroacetate] | IC50 [1, 6]: 1800 nM
– | – | – | – | – | – | – | – | NC(=O)N1CCN(c2cc(-c3cc4cc(c3)Nc3ncc(Cl)c(n3)Nc3cccc(c3)OCC4)ccn2)CC1 [Example D39, 4-{4-[6-Chloro-14-oxa-2,4,8,23-tetraazatetracyclo[15.3.1.1(3,7).1(9,13)]tricosa-1(21),3(23),4,6,9(22),10,12,17,19-nonaen-19-yl]pyridin-2-yl}piperazine-1-carboxamide bis(trifluoroacetate)] | IC50 (TYK2; Table D1): 1.8 nM; IC50 ([1]; Table D1, 90 μM ATP): 91 nM; IC50 ([2]; Table D1): 6.4 nM; IC50 ([3]; Table D1): 0.5 nM; IC50 ([4]; Table D1): 0.5 nM
3.9 | 7 | 1.7 | 0.75 | – | – | – | – | O=C(Nc1ccc2cc1CCc1cccc(c1)Nc1ncc(Cl)c(n1)N2)c1cccc(Cl)c1 [Example B42, 3-Chloro-N-[6-chloro-2,4,8,22-tetraazatetracyclo[14.3.1.1(3,7).1(9,13)]docosa-1(20),3(22),4,6,9(21),10,12,16,18-nonaen-12-yl]benzamide hydrochloride] | IC50 [1, 6]: 310 nM
– | – | – | – | 1.6 | 64 | 0.6 | 4.1 | O=C(CC1CCN(C(=O)c2ccno2)CC1)Nc1ccc2cc1CCc1cncc(c1)Nc1ncc(Cl)c(n1)N2 [Example A128, N-[6-Chloro-2,4,8,18,22-pentaazatetracyclo[14.3.1.1(3,7).1(9,13)]docosa-1(20),3(22),4,6,9(21),10,12,16,18-nonaen-12-yl]-2-[1-(isoxazol-5-ylcarbonyl)piperidin-4-yl]acetamide bis(trifluoroacetate)] | ALK % of inhibition at a concentration of 500 nM or 1 mM [1, 7]: 34%
– | – | – | – | 45 | 9.2 | 36 | 11 | Oc1ccc2cc1Nc1nc(ncc1Cl)Nc1cccc(c1)CC2 [Example A26, 6-Chloro-2,4,8,22-tetraazatetracyclo[14.3.1.1(3,7).1(9,13)]docosa-1(20),3(22),4,6,9(21),10,12,16,18-nonaen-10-ol trifluoroacetate] | IC50 ([1]; 90 μM ATP): 350 nM
– | – | – | – | 617 | > 10000 | 2.6 | 102 | O=C(CC1CCN(c2nc3ccccc3s2)CC1)Nc1ccc2cc1CCc1cncc(c1)Nc1ncc(Cl)c(n1)N2 [Example A157, 2-[1-(1,3-Benzothiazol-2-yl)piperidin-4-yl]-N-[6-chloro-2,4,8,18,22-pentaazatetracyclo[14.3.1.1(3,7).1(9,13)]docosa-1(20),3(22),4,6,9(21),10,12,16,18-nonaen-12-yl]acetamide tris(trifluoroacetate)] | ALK % of inhibition at a concentration of 500 nM or 1 mM [1, 7]: 15%
– | – | – | – | > 1000 | – | – | – | O=C1NCc2cccc(c2)Nc2nc(ncc2Cl)Nc2cccc1c2 [Example C5, 6-Chloro-2,4,8,15,23-pentaazatetracyclo[15.3.1.1(3,7).1(9,13)]tricosa-1(21),3(23),4,6,9(22),10,12,17,19-nonaen-16-one hydrochloride] | IC50 [1]: > 1000 nM; IC50 [2]: > 1000 nM; IC50 [3]: > 1000 nM; IC50 [4]: > 1000 nM
5.2 | 27 | 0.56 | 1.7 | – | – | – | – | O=C(Nc1ccccc1)Nc1ccc2cc1CCc1cccc(c1)Nc1ncc(Cl)c(n1)N2 [Example B83, N-[6-Chloro-2,4,8,22-tetraazatetracyclo[14.3.1.1(3,7).1(9,13)]docosa-1(20), 3(22),4,6,9(21),10,12,16,18-nonaen-12-yl]-N′-phenylurea trifluoroacetate] | IC50 [1, 6]: 780 nM
41 | 41 | 19 | 8.9 | – | – | – | – | Clc1cnc2nc1Nc1ccc(CN3CCNCC3)c(c1)CCc1cccc(c1)N2 [Example B224, 6-Chloro-12-(piperazin-1-ylmethyl)-2,4,8,22-tetraazatetracyclo[14.3.1.1(3,7).1(9,13)]docosa-1(20),3(22),4,6,9(21),10,12,16,18-nonaene tris(trifluoroacetate)] | ALK % of inhibition at a concentration of 500 nM or 1 mM [1, 5]: 28%
– | – | – | – | 59 | 350 | 31 | 64 | CC(=O)N1CCN(CC(=O)Nc2ccc3cc2CCc2cncc(c2)Nc2ncc(Cl)c(n2)N3)CC1 [Example A127, 2-(4-Acetylpiperazin-1-yl)-N-[6-chloro-2,4,8,18,22-pentaazatetracyclo[14.3.1.1(3,7).1(9,13)]docosa-1(20),3(22),4,6,9(21),10,12,16,18-nonaen-12-yl]acetamide tris(trifluoroacetate)] | ALK % of inhibition at a concentration of 500 nM or 1 mM [1, 7]: 15%
– | – | – | – | > 400 | > 400 | 42 | > 400 | N#Cc1cc(F)c(Cl)nc1N1CCC(CC(=O)Nc2ccc3cc2CCc2cncc(c2)Nc2ncc(Cl)c(n2)N3)CC1 [Example A241, 2-[1-(6-Chloro-3-cyano-5-fluoropyridin-2-yl)piperidin-4-yl]-N-[6-chloro-2,4,8,18,22-pentaazatetracyclo[14.3.1.1(3,7).1(9,13)]docosa-1(20),3(22),4,6,9(21),10,12,16,18-nonaen-12-yl]acetamide tris(trifluoroacetate)] | ALK % of inhibition at a concentration of 500 nM or 1 mM [1, 7]: 14%
13 | 104 | 11 | 2.8 | – | – | – | – | CC(C)S(=O)(=O)Nc1ccc2cc1CCc1cccc(c1)Nc1ncc(Cl)c(n1)N2 [Example B143, N-[6-Chloro-2,4,8,22-tetraazatetracyclo[14.3.1.1(3,7).1(9,13)]docosa-1(20), 3(22),4,6,9(21),10,12,16,18-nonaen-12-yl]propane-2-sulfonamide trifluoroacetate] | IC50 [1, 6]: > 1000 nM
